In patent US20020137929A1, “1 - (3-heterocyclylphenyl) isothiourea, -isourea, -guanidine and -amidine herbicidal agents” (Intellectual Property Department, BASF Aktiengesellschaft, priority 1998, published 2002):

Experiments:
[1] = system: GLXMAW (Soybean, Williams); experiment: Postemergence herbicidal evaluation; type: in vivo, Glycine max, (L.) Merr. cv Williams
Outline: (§1)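 ~2-wk seedlings; postemergence spray, 40 psi; vehicle 1:1 acetone:water + 0.5% Tween 20; rate ≈0.0156–0.500 kg/ha; greenhouse hold; scored 4–5 wk after treatment, 0–9 scale vs control; repeat tests averaged.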

CYPSE (Flatsedge) = experiment: Preemergence weed control under flooded paddy conditions; type: in vivo, Cyperus serotinus; details: rated 3-4 weeks after treatment
Outline: (§2)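 Silt loam, seeds in top 0.5 cm; flood held 1.5-3 cm; test cpd as acetone/water 50/50 into flood water, ~0.0313-0.500 kg/ha a.i.; greenhouse 3-4 wk; visual 0-9 score vs control.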

MOOVA (Monochoria) = experiment: as above; type: in vivo, Monochoria vaginalis; details: rated 3-4 weeks after treatment
Outline: as §2

AMBEL (Ragweed, Common) = experiment: Postemergence herbicidal evaluation; type: in vivo, Ambrosia artemisifolia
Outline: as §1

SETVI (Foxtail, Green) = experiment: Preemergence herbicidal evaluation; type: in vivo, Setaria viridis; details: rated 4-5 weeks after treatment; for SETVI rating: preemergence, 0-9 scale
Outline: (§3)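 Each species is sown separately in potting soil over roughly an inch of soil before any emergence. The soil surface then receives an aqueous acetone spray delivering about 0.0156 to 0.500 kg/ha of compound. After four to five weeks, injury is scored from 0 to 9 relative to a control.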

[2] = system: ECHORC (Watergrass (Calif.)); experiment: Preemergence weed control under flooded paddy conditions; type: in vivo, Echinochloa oryzoides; details: rated 3-4 weeks after treatment
Outline: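 Herbicidal effect is scored visually on a 0-9 scale against an untreated control, three to four weeks after compounds are pipetted into the flood water (1.5 to 3 cm deep) over seeds planted in silt loam at 0.5 cm depth. Rates: about 0.0313 to 0.500 kg/ha.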

ORYSAT (Rice, Tebonnet) = experiment: Preemergence herbicidal evaluation; type: in vivo, Oryza sativa, (L.) Tebonnet; details: rated 4-5 weeks after treatment; for ORYSAT rating: preemergence, 0-9 scale
Outline: as §3

[3] = system: ECHORC (Watergrass (Calif.)); experiment: Postemergence weed control under flooded paddy conditions; type: in vivo, Echinochloa oryzoides; details: postemergence weeds, rated 3 to 4 weeks after treatment
Outline: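 Injury ratings (0–9 scale covering stand, vigor, malformation, size, chlorosis and overall appearance versus control) were made three to four weeks after treatment. Test material, about 0.0313 to 0.500 kg/ha a.i. in 50/50 v/v aqueous/acetone, was added to flood water 1.5 to 3 cm deep over 3 to 5 cm weeds and 1.5 to 2.5 leaf rice.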

CASOB (Sicklepod) = experiment: Postemergence herbicidal evaluation; type: in vivo, Cassia obtusifolia
Outline: as §1

[4] = system: TRZAWR (Wheat, Winter, cv Riband); experiment: Postemergence herbicidal evaluation; type: in vivo, Triticum aestivum
Outline: as §1

GALAP (Galium) [5] = experiment: Preemergence herbicidal evaluation; type: in vivo, Galium aparine; details: rated 4-5 weeks after treatment; for GALAP rating: preemergence, 0-9 scale
Outline: as §3

GALAP (Galium) [6] = experiment: Postemergence herbicidal evaluation; type: in vivo, Galium aparine
Outline: as §1

[7] = system: SAGPY (Arrowhead (Pygmaea)); experiment: Preemergence weed control under flooded paddy conditions; type: in vivo, Sagittaria pygmaea; details: rated 3-4 weeks after treatment
Outline: as §2

[8] = postemergence, rate 0.0156 kg/ha
[9] = postemergence, rate 0.0313 kg/ha
[10] = postemergence, rate 0.0625 kg/ha
[11] = postemergence, rate 0.1250 kg/ha

## CN1C(=O)C(CC(=O)NS(C)(=O)=O)SC1=Nc1cc(-n2c(=O)cc(C(F)(F)F)n(C)c2=O)c(F)cc1Cl (stereo not drawn) [Compound 97, 2-{{2-Chloro-5-[3,6-dihydro-3-methyl-2,6-dioxo-4-(trifluoromethyl)-1(2H)-pyrimidinyl]-4-fluorophenyl}imino}-3-methyl-N-(methylsulfonyl)-4-oxo-5-thiazolidineacetamide]
[1]; [8]
  GLXMAW herbicidal rating: 4.5
[1]; [9]
  GLXMAW herbicidal rating: 4.0
[1]; [10]
  GLXMAW herbicidal rating: 5.5
[1]; [11]
  GLXMAW herbicidal rating: 6.5
CYPSE (Flatsedge); 0.0313 kg/ha
  CYPSE herbicidal effect rating: 0.0
CYPSE (Flatsedge); 0.0625 kg/ha
  CYPSE herbicidal effect rating: 0.0
CYPSE (Flatsedge); 0.1250 kg/ha
  CYPSE herbicidal effect rating: 0.0
CYPSE (Flatsedge); 0.2500 kg/ha
  CYPSE herbicidal effect rating: 3.0
MOOVA (Monochoria); 0.0313 kg/ha
  MOOVA herbicidal effect rating: 9.0
MOOVA (Monochoria); 0.0625 kg/ha
  MOOVA herbicidal effect rating: 9.0
MOOVA (Monochoria); 0.1250 kg/ha
  MOOVA herbicidal effect rating: 9.0
MOOVA (Monochoria); 0.2500 kg/ha
  MOOVA herbicidal effect rating: 9.0
AMBEL (Ragweed, Common); [8]
  AMBEL herbicidal rating: 0.0
AMBEL (Ragweed, Common); [9]
  AMBEL herbicidal rating: 1.0
AMBEL (Ragweed, Common); [10]
  AMBEL herbicidal rating: 4.0
AMBEL (Ragweed, Common); [11]
  AMBEL herbicidal rating: 7.0
SETVI (Foxtail, Green); 0.1250 kg/ha
  SETVI rating: 0.0
SETVI (Foxtail, Green); 0.2500 kg/ha
  SETVI rating: 1.0
SETVI (Foxtail, Green); 0.5000 kg/ha
  SETVI rating: 7.0
[2]; 0.0313 kg/ha
  ECHORC herbicidal effect rating: 0.0
[2]; 0.0625 kg/ha
  ECHORC herbicidal effect rating: 0.0
[2]; 0.1250 kg/ha
  ECHORC herbicidal effect rating: 2.0
[2]; 0.2500 kg/ha
  ECHORC herbicidal effect rating: 3.0
ORYSAT (Rice, Tebonnet); 0.1250 kg/ha
  ORYSAT rating: 0.0
ORYSAT (Rice, Tebonnet); 0.2500 kg/ha
  ORYSAT rating: 1.0
ORYSAT (Rice, Tebonnet); 0.5000 kg/ha
  ORYSAT rating: 1.0
[3]; Rate 0.0313 kg/ha
  Herbicidal rating ECHORC: 0.0
[3]; Rate 0.0625 kg/ha
  Herbicidal rating ECHORC: 0.0
[3]; Rate 0.1250 kg/ha
  Herbicidal rating ECHORC: 2.0
[3]; Rate 0.2500 kg/ha
  Herbicidal rating ECHORC: 3.0
CASOB (Sicklepod); [8]
  CASOB herbicidal rating: 0.0
CASOB (Sicklepod); [9]
  CASOB herbicidal rating: 0.0
CASOB (Sicklepod); [10]
  CASOB herbicidal rating: 0.0
CASOB (Sicklepod); [11]
  CASOB herbicidal rating: 1.0
[4]; [8]
  TRZAWR herbicidal rating: 1.0
[4]; [9]
  TRZAWR herbicidal rating: 1.5
[4]; [10]
  TRZAWR herbicidal rating: 2.5
[4]; [11]
  TRZAWR herbicidal rating: 4.0
GALAP (Galium) [5]; 0.1250 kg/ha
  GALAP rating: 1.0
GALAP (Galium) [5]; 0.2500 kg/ha
  GALAP rating: 0.0
GALAP (Galium) [5]; 0.5000 kg/ha
  GALAP rating: 5.0
GALAP (Galium) [6]; [8]
  GALAP herbicidal rating: 0.0
GALAP (Galium) [6]; [9]
  GALAP herbicidal rating: 0.0
GALAP (Galium) [6]; [10]
  GALAP herbicidal rating: 1.0
GALAP (Galium) [6]; [11]
  GALAP herbicidal rating: 1.0

## CCCN1C(=O)CSC1=Nc1cc(-n2c(=O)cc(C(F)(F)F)n(C)c2=O)c(F)cc1Cl [Compound 171, 3-{4-Chloro-2-fluoro-5-[(4-oxo-3-propyl-2-thiazolidinylidene)amino]phenyl}-1-methyl-6-(trifluoromethyl)-2,4 (1H, 3H)-pyrimidinedione]
[1]; Rate 0.0156 kg/ha
  Postemergence herbicidal rating GLXMAW: 5.5
[1]; Rate 0.0313 kg/ha
  Postemergence herbicidal rating GLXMAW: 6.5
[1]; [10]
  herbicidal rating GLXMAW: 7.0
CYPSE (Flatsedge); 0.0313 kg/ha
  herbicidal effect rating, CYPSE: 9.0
CYPSE (Flatsedge); 0.0625 kg/ha
  herbicidal effect rating, CYPSE: 9.0
CYPSE (Flatsedge); 0.1250 kg/ha
  herbicidal effect rating, CYPSE: 9.0
CYPSE (Flatsedge); 0.2500 kg/ha
  herbicidal effect rating, CYPSE: 9.0
MOOVA (Monochoria); 0.0313 kg/ha
  herbicidal effect rating, MOOVA: 9.0
MOOVA (Monochoria); 0.0625 kg/ha
  herbicidal effect rating, MOOVA: 9.0
MOOVA (Monochoria); 0.1250 kg/ha
  herbicidal effect rating, MOOVA: 9.0
MOOVA (Monochoria); 0.2500 kg/ha
  herbicidal effect rating, MOOVA: 9.0
AMBEL (Ragweed, Common); Rate 0.0156 kg/ha
  Postemergence herbicidal rating AMBEL: 6.0
AMBEL (Ragweed, Common); Rate 0.0313 kg/ha
  Postemergence herbicidal rating AMBEL: 9.0
AMBEL (Ragweed, Common); [10]
  herbicidal rating AMBEL: 9.0
SETVI (Foxtail, Green); 0.0156 kg/ha
  Preemergence herbicidal rating SETVI: 7.0
SETVI (Foxtail, Green); 0.0313 kg/ha
  Preemergence herbicidal rating SETVI: 9.0
SETVI (Foxtail, Green); 0.0625 kg/ha
  Preemergence herbicidal rating SETVI: 9.0
SETVI (Foxtail, Green); 0.1250 kg/ha
  Preemergence herbicidal rating SETVI: 9.0
SETVI (Foxtail, Green); 0.2500 kg/ha
  Preemergence herbicidal rating SETVI: 9.0
[2]; 0.0313 kg/ha
  herbicidal effect rating, ECHORC: 8.0
[2]; 0.0625 kg/ha
  herbicidal effect rating, ECHORC: 9.0
[2]; 0.1250 kg/ha
  herbicidal effect rating, ECHORC: 9.0
[2]; 0.2500 kg/ha
  herbicidal effect rating, ECHORC: 9.0
ORYSAT (Rice, Tebonnet); 0.0156 kg/ha
  Preemergence herbicidal rating ORYSAT: 2.0
ORYSAT (Rice, Tebonnet); 0.0313 kg/ha
  Preemergence herbicidal rating ORYSAT: 4.0
ORYSAT (Rice, Tebonnet); 0.0625 kg/ha
  Preemergence herbicidal rating ORYSAT: 5.0
ORYSAT (Rice, Tebonnet); 0.1250 kg/ha
  Preemergence herbicidal rating ORYSAT: 6.0
ORYSAT (Rice, Tebonnet); 0.2500 kg/ha
  Preemergence herbicidal rating ORYSAT: 8.0
CASOB (Sicklepod); Rate 0.0156 kg/ha
  Postemergence herbicidal rating CASOB: 2.0
CASOB (Sicklepod); Rate 0.0313 kg/ha
  Postemergence herbicidal rating CASOB: 3.0
CASOB (Sicklepod); [10]
  herbicidal rating CASOB: 4.0
[7]; 0.0313 kg/ha
  herbicidal effect rating, SAGPY: 6.0
[7]; 0.0625 kg/ha
  herbicidal effect rating, SAGPY: 7.0
[7]; 0.1250 kg/ha
  herbicidal effect rating, SAGPY: 8.0
[7]; 0.2500 kg/ha
  herbicidal effect rating, SAGPY: 9.0
[4]; Rate 0.0156 kg/ha
  Postemergence herbicidal rating TRZAWR: 4.0
[4]; Rate 0.0313 kg/ha
  Postemergence herbicidal rating TRZAWR: 5.0
[4]; [10]
  herbicidal rating TRZAWR: 6.0
GALAP (Galium) [5]; 0.0156 kg/ha
  Preemergence herbicidal rating GALAP: 0.0
GALAP (Galium) [5]; 0.0313 kg/ha
  Preemergence herbicidal rating GALAP: 0.0
GALAP (Galium) [5]; 0.1250 kg/ha
  Preemergence herbicidal rating GALAP: 5.0
GALAP (Galium) [5]; 0.2500 kg/ha
  Preemergence herbicidal rating GALAP: 6.0
GALAP (Galium) [6]; Rate 0.0156 kg/ha
  Postemergence herbicidal rating GALAP: 3.0
GALAP (Galium) [6]; Rate 0.0313 kg/ha
  Postemergence herbicidal rating GALAP: 6.0
GALAP (Galium) [6]; [10]
  herbicidal rating GALAP: 7.0
